Assay results taken from patent publication US20210253575A1, “PYRROLIDINE AMINE COMPOUNDS FOR THE TREATMENT OF AUTOIMMUNE DISEASE” (Hoffmann-La Roche Inc., priority 2018, published 2021).

target: T1, human TLR8 (Homo sapiens, UniProt Q9NR97); assay: HEK293-Blue-hTLR-8 cells assay (SEAP reporter, R848 stimulation); type: cell-based; details: HEK293-Blue-hTLR8 cells, R848 ligand, 20 hrs incubation
T1 sequence (Q9NR97 27-1041): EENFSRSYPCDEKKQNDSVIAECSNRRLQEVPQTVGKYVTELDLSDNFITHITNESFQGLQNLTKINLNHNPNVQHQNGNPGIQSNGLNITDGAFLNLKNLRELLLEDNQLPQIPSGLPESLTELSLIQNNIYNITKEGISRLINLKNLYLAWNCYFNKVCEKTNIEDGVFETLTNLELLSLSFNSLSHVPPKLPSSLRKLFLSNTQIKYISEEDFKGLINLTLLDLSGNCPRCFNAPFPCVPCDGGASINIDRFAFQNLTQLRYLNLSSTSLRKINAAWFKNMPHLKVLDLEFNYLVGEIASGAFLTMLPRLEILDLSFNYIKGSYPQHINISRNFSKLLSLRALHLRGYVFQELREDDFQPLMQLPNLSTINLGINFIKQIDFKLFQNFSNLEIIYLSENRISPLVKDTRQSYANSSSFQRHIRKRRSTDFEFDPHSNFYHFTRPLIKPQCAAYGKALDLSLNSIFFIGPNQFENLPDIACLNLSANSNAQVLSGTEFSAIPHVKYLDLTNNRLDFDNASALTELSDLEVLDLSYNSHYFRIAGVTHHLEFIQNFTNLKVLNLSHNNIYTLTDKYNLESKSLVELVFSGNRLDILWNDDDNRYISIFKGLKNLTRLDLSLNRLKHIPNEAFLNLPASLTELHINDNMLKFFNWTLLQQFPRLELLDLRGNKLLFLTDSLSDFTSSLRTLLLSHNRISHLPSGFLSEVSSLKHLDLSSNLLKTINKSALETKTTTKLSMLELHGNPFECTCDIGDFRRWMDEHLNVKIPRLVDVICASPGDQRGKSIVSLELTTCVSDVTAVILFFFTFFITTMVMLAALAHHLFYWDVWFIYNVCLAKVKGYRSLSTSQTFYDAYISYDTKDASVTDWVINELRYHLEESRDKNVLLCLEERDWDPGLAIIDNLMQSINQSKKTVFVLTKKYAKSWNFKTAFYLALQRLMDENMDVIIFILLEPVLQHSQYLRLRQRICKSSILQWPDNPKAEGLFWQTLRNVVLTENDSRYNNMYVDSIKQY
Summary of the method: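 Antagonism was measured in HEK293-Blue-hTLR8 cells with an NF-κB/AP-1-driven SEAP reporter. Cells were stimulated with R848 (10 μL of 60 uM stock) alongside compound (1% DMSO) for 20 hrs at 37° C. Supernatant SEAP was read with QUANTI-Blue after 2 hrs, absorbance at 620-655 nm.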

SMILES | IC50 [nM]
CC1(CN)CCN(C[C@H]2CN(c3ccc(C#N)c4nccnc34)C[C@@H]2C(F)(F)F)C1 (stereo partly drawn) [Example 85, 8-[(3S,4R)-3-[[3-(aminomethyl)-3-methyl-pyrrolidin-1-yl]methyl]-4-(trifluoromethyl)pyrrolidin-1-yl]quinoxaline-5-carbonitrile] | 75
N#Cc1ccc(N2CC(CN3CCNCC3)C3(CC3)C2)c2nccnc12 (centres unmarked) [Example 3, 8-[7-(piperazin-1-ylmethyl)-5-azaspiro[2.4]heptan-5-yl]quinoxaline-5-carbonitrile] | 12
CN(C)[C@@H]1CCN(C[C@H]2CN(c3ccc(C#N)c4nccnc34)C[C@@H]2C(F)(F)F)C1 [Example 83, 8-[(3S,4R)-3-[[(3R)-3-(dimethylamino)pyrrolidin-1-yl]methyl]-4-(trifluoromethyl)pyrrolidin-1-yl]quinoxaline-5-carbonitrile] | 65
CN1CCC2(CCN(C[C@H]3CN(c4ccc(C#N)c5nccnc45)C[C@@H]3C(F)(F)F)C2)C1 (stereo partly drawn) [Example 84, 8-[(3S,4R)-3-[(7-methyl-2,7-diazaspiro[4.4]nonan-2-yl)methyl]-4-(trifluoromethyl)pyrrolidin-1-yl]quinoxaline-5-carbonitrile] | 57
N#Cc1ccc(N2CC(CN3CC4CCC(C3)C4N)C3(CC3)C2)c2nccnc12 (centres unmarked) [Example 4, 8-[7-[(8-Amino-3-azabicyclo[3.2.1]octan-3-yl)methyl]-5-azaspiro[2.4]heptan-5-yl]quinoxaline-5-carbonitrile] | 38
